According to patent publication US20230099031A1, “BIFUNCTIONAL AGENTS FOR PROTEIN RECRUITMENT AND/OR DEGRADATION” (Orionis Biosciences, Inc., priority 2019, published 2023):

Target: T1, CRBN (Homo sapiens, UniProt Q96SW2)
T1 construct: expressed in transfected cells; host or cells: HEK293T
Test: Competition Assay: MAPPIT-like, competition with trimethoprim-lenalidomide hybrid ligand for binding to CRBN in HEK293T cells
Format: cell-based
Conditions: protocol and reagents of Example 1; read-out: IC50 Competition
Text: A bait protein (protein A) is expressed as a fusion protein in which it is genetically fused to an engineered intracellular receptor domain of the leptin receptor, which is itself fused to the extracellular domain of the erythropoietin (Epo) receptor. Binding of Epo ligand to the EpoR component results in activation of receptor-associated intracellular JAK2. However, activated JAK2 cannot activate the leptin receptor to trigger STAT3 binding and its phosphorylation because its tyrosine residues, normally phosphorylated by activated JAK2, have been mutated. Reconstitution of a JAK2 phosphorylatable STAT3 docking site is instead created through interaction of a protein B with protein A, whereby protein B is fused to a cytoplasmic domain of the gp130 receptor (which now harbors appropriate tyrosine resides recognized by the activated JAK2 kinase). Thus, physical interaction of protein A with protein B reconstitutes and Epo triggers JAK2-STAT3 signaling pathway activation. Activation of STAT3 can be monitored by introduction of a STAT3-responsive reporter gene, including a luciferase-encoding gene or a gene encoding a fluorescent marker such as GFP or some other type of fluorescent protein (EGF etc.). In this manner, the MAPPIT assay provides a versatile assay to assess such recombinant protein-protein interactions, or compound- or hybrid ligand-induced protein-protein interactions, in intact cells.
Formation of the complex results in activation of a STAT-responsive luciferase reporter gene. That signal is set to 100% luciferase activity. In a separate sample set up, cells are prepared in the same manner but, in addition, co-incubated with a test compound whose interaction with CRBN is investigated. […] Increasing concentrations of test compound are assessed to determine CRBN binding efficiency as determined in this type of ligand competition experiment in living cells. Specificity of signal inhibition is assessed by a parallel experimental set up in which test compound effect is assessed for inhibition of signal generated by a control gp130 fusion protein (CTRL) that directly binds to the DHFR-fusion protein in the absence of hybrid ligand (i.e. a direct interaction of the proteins).
In more detail, HEK293T cells are cultured in Dulbecco's modified Eagle's medium supplemented with 10% fetal calf serum, incubated at 37° C., 8% CO2. […] Data points represent the average luciferase activity of triplicate samples derived from cells treated with leptin+test compound for the REM2 control (CTRL) or cells treated with leptin+hybrid ligand+test compound (CRBN) relative to leptin (CTRL) or leptin+hybrid ligand (CRBN) only treated samples (the signals obtained in absence of added test compound for both cases is set at 100% of luciferase activity on y-axis). Error bars represent standard deviations. Curves are fit using 4-parameter nonlinear regression in […] PRISM software

Row | IC50 | Compound
1 | 10.9 nM | O=C1CCC(N2Cc3cc(Nc4ncnc5sccc45)ccc3C2=O)C(=O)N1 (stereo not shown) [Compound C80370, 3-[1-oxo-5-(thieno[2,3-d]pyrimidin-4-ylamino)isoindolin-2-yl]piperidine-2,6-dione]
2 | 16600 nM | Cn1ncc2c(Nc3ccc4c(c3)CN(C3CCC(=O)NC3=O)C4=O)ncnc21 (stereo not shown) [Compound C80374, 3-[5-[(1-methylpyrazolo[3,4-d]pyrimidin-4-yl)amino]-1-oxo-isoindolin-2-yl]piperidine-2,6-dione]
3 | 2060 nM | Nc1nccc(Nc2ccc3c(c2)CN(C2CCC(=O)NC2=O)C3=O)n1 (stereo not shown) [Compound C80375, 3-[5-[(2-aminopyrimidin-4-yl)amino]-1-oxo-isoindolin-2-yl]piperidine-2,6-dione]
4 | 179 nM | Cc1cc(Nc2ccc3c(c2)C(=O)N(C2CCC(=O)NC2=O)C3)ncn1 (stereo not shown) [Compound C80384, 3-[6-[(6-methylpyrimidin-4-yl)amino]-1-oxo-isoindolin-2-yl]piperidine-2,6-dione]
5 | 54.2 nM | Cn1ccnc(Nc2ccc3c(c2)C(=O)N(C2CCC(=O)NC2=O)C3)c1=O (stereo not shown) [Compound C80387, 3-[6-[(4-methyl-3-oxo-pyrazin-2-yl)amino]-1-oxo-isoindolin-2-yl]piperidine-2,6-dione]
6 | 645 nM | N#Cc1ccc(Nc2ccc3c(c2)C(=O)N(C2CCC(=O)NC2=O)C3)nn1 (stereo not shown) [Compound C80389, 6-[[2-(2,6-dioxo-3-piperidyl)-3-oxo-isoindolin-5-yl]amino]pyridazine-3-carbonitrile]
7 | 729 nM | Cc1cc2[nH]cnc(Nc3ccc4c(c3)C(=O)N(C3CCC(=O)NC3=O)C4)c-2n1 (stereo not shown) [Compound C80390, 3-[6-[(6-methylpyrrolo[3,2-d]pyrimidin-4-yl)amino]-1-oxo-isoindolin-2-yl]piperidine-2,6-dione]
8 | 0.0205 nM | O=C1CCC(N2Cc3ccc(NC(=O)c4ccc5ccccc5n4)cc3C2=O)C(=O)N1 (stereo not shown) [Compound C80392, N-[2-(2,6-dioxo-3-piperidyl)-3-oxo-isoindolin-5-yl]quinoline-2-carboxamide]
9 | 4010 nM | NC(=O)CNc1ccc2c(c1)C(=O)N(C1CCC(=O)NC1=O)C2 (stereo not shown) [Compound C84961, 2-[[2-(2,6-dioxo-3-piperidyl)-3-oxo-isoindolin-5-yl]amino]acetamide]
10 | 266 nM | CN(C)C(=O)CNc1ccc2c(c1)C(=O)N(C1CCC(=O)NC1=O)C2 (stereo not shown) [Compound C84964, 2-[[2-(2,6-dioxo-3-piperidyl)-3-oxo-isoindolin-5-yl]amino]-N,N-dimethyl-acetamide]
11 | 599 nM | O=C(CNc1ccc2c(c1)C(=O)N(C1CCC(=O)NC1=O)C2)NCc1ccccc1 (stereo not shown) [Compound C84966, N-benzyl-2-[[2-(2,6-dioxo-3-piperidyl)-3-oxo-isoindolin-5-yl]amino]acetamide]
12 | 1310 nM | O=C1CCC(N2Cc3ccc(N4CCNC4=O)cc3C2=O)C(=O)N1 (stereo not shown) [Compound C84971, 3-[1-oxo-6-(2-oxoimidazolidin-1-yl)isoindolin-2-yl]piperidine-2,6-dione]
13 | 30 nM | O=C1CCC(N2Cc3ccc(NCC(=O)N4Cc5ccccc5C4)cc3C2=O)C(=O)N1 (stereo not shown) [Compound C95330, 3-[6-[(2-isoindolin-2-yl-2-oxo-ethyl)amino]-1-oxo-isoindolin-2-yl]piperidine-2,6-dione]
14 | 10400 nM | C=CCC1c2ccccc2C(=O)N1C1CCC(=O)NC1=O (stereo not shown) [Compound C96413, 3-(1-allyl-3-oxo-isoindolin-2-yl)piperidine-2,6-dione]
15 | 214 nM | CN(C)c1ccc2c(c1)C(=O)N(C1CCC(=O)NC1=O)C2 (stereo not shown) [Compound C96622, 3-[6-(dimethylamino)-1-oxo-isoindolin-2-yl]piperidine-2,6-dione]
16 | 9340 nM | O=C1CC=CC(C(=O)NC2CCC(=O)NC2=O)=N1 (stereo not shown) [Compound C98696, N-(2,6-dioxo-3-piperidyl)-2-oxo-3H-pyridine-6-carboxamide]
17 | 1370 nM | O=C1CCC(N2Cc3cccc([N+](=O)[O-])c3C2=O)C(=O)N1 (stereo not shown) [Compound C99884, 3-(7-nitro-1-oxo-isoindolin-2-yl)piperidine-2,6-dione]

Further lines, the compound ahead of its results:

Row | Compound | IC50
18 | Nc1nc(Nc2ccc3c(c2)CN(C2CCC(=O)NC2=O)C3=O)nc2sccc12 (stereo not shown) [Compound C80379, 3-[5-[(4-aminothieno[2,3-d]pyrimidin-2-yl)amino]-1-oxo-isoindolin-2-yl]piperidine-2,6-dione] | 971 nM
19 | Cn1ncc2c(Nc3ccc4c(c3)C(=O)N(C3CCC(=O)NC3=O)C4)ncnc21 (stereo not shown) [Compound C80383, 3-[6-[(1-methylpyrazolo[3,4-d]pyrimidin-4-yl)amino]-1-oxo-isoindolin-2-yl]piperidine-2,6-dione] | 148 nM
20 | O=C1CCC(N2Cc3ccc(Nc4cnc5ccccc5n4)cc3C2=O)C(=O)N1 (stereo not shown) [Compound C80386, 3-[1-oxo-6-(quinoxalin-2-ylamino)isoindolin-2-yl]piperidine-2,6-dione] | 67.4 nM
21 | O=C1CCC(N2Cc3ccc(NC(=O)c4ccc5cnccc5n4)cc3C2=O)C(=O)N1 (stereo not shown) [Compound C80393, N-[2-(2,6-dioxo-3-piperidyl)-3-oxo-isoindolin-5-yl]-1,6-naphthyridine-2-carboxamide] | 7 nM
22 | O=C1CCC(N2Cc3ccc(NC(=O)C4=C5C=CN=C5N=CC4)cc3C2=O)C(=O)N1 (stereo not shown) [Compound C80395, N-[2-(2,6-dioxo-3-piperidyl)-3-oxo-isoindolin-5-yl]-5H-pyrrolo[2,3-6]pyridine-4-carboxamide] | 880 nM
23 | O=C1CCC(N2Cc3ccc(NCC(=O)NC4CC4)cc3C2=O)C(=O)N1 (stereo not shown) [Compound C84963, N-cyclopropyl-2-[[2-(2,6-dioxo-3-piperidyl)-3-oxo-isoindolin-5-yl]amino]acetamide] | 1210 nM
24 | O=C1CCC(N2Cc3ccc(NCC(=O)Nc4ccccc4)cc3C2=O)C(=O)N1 (stereo not shown) [Compound C84965, 2-[[2-(2,6-dioxo-3-piperidyl)-3-oxo-isoindolin-5-yl]amino]-N-phenyl-acetamide] | 200 nM
25 | CC(=O)NCC(=O)Nc1ccc2c(c1)C(=O)N(C1CCC(=O)NC1=O)C2 (stereo not shown) [Compound C84967, 2-acetamido-N-[2-(2,6-dioxo-3-piperidyl)-3-oxo-isoindolin-5-yl]acetamide] | 3150 nM
26 | O=C1CCC(N2Cc3ccc(NCC(=O)N4CCc5ccccc5C4)cc3C2=O)C(=O)N1 (stereo not shown) [Compound C95329] | 10300 nM
27 | CN(Cc1cnn(C)c1)C(=O)CNc1ccc2c(c1)C(=O)N(C1CCC(=O)NC1=O)C2 (stereo not shown) [Compound C95333, 2-[[2-(2,6-dioxo-3-piperidyl)-3-oxo-isoindolin-5-yl]amino]-N-methyl-N-[(1-methylpyrazol-4-yl)methyl]acetamide] | 591 nM
28 | CC1Cc2ccccc2N1C(=O)CNc1ccc2c(c1)C(=O)N(C1CCC(=O)NC1=O)C2 (stereo not shown) [Compound C95336, 3-[6-[[2-(2-methylindolin-1-yl)-2-oxo-ethyl]amino]-1-oxo-isoindolin-2-yl]piperidine-2,6-dione] | 11900 nM
29 | CN(CC1CC1)C(=O)CNc1ccc2c(c1)C(=O)N(C1CCC(=O)NC1=O)C2 (stereo not shown) [Compound C95338, N-(cyclopropylmethyl)-2-[[2-(2,6-dioxo-3-piperidyl)-3-oxo-isoindolin-5-yl]amino]-N-methyl-acetamide] | 32.1 nM
30 | O=C1CCC(Nc2ncc3ccccc3n2)C(=O)N1 (stereo not shown) [Compound C97402, 3-(quinazolin-2-ylamino)piperidine-2,6-dione] | 6320 nM
31 | CC(C)(C)OC(=O)CC1c2ccccc2C(=O)N1C1CCC(=O)NC1=O (stereo not shown) [Compound C98053, t-butyl 2-[2-(2,6-dioxo-3-piperidyl)-3-oxo-isoindolin-1-yl]acetate] | 5770 nM
